The results in this text go back to ChEMBL document CHEMBL5523751, “Discovery of Novel Diaryl-Substituted Fused Heterocycles Targeting Katanin and Tubulin with Potent Antitumor and Antimultidrug Resistance Efficacy” (J Med Chem, 2024).

For one data set, the system named is HT-29. Kind of data set: Antiproliferative activity against human HT-29 cells assessed as inhibition of cell growth measured after 48 hrs by MTT assay. Type of data set: functional, cell-based. The note with it: HT-29, 48 h. (In general: Tetrazolium assays rely on reduction of a dye to a coloured formazan, in cell work by metabolically active cells.)
Another data set concerns A2780. Kind of data set: Antiproliferative activity against human A2780 cells assessed as inhibition of cell growth measured after 48 hrs by MTT assay. The note with it: A2780, 48 h. Format: functional, cell-based.
Another data set deals with MCF7. Kind of data set: Antiproliferative activity against human MCF7 cells assessed as inhibition of cell growth measured after 48 hrs by MTT assay. Format: functional, cell-based. As to conditions: MCF7, 48 h.
In a further data set the test system is DU-145. Kind of data set: Antiproliferative activity against human DU-145 assessed as inhibition of cell growth measured after 48 hrs by MTT assay. Type of data set: functional, cell-based. As to conditions: DU-145, 48 h.
In the next data set the test system is MDA-MB-231. Kind of data set: Antiproliferative activity against human MDA-MB-231 cells assessed as inhibition of cell growth measured after 48 hrs by MTT assay. Type of data set: functional, cell-based. The note with it: MDA-MB-231, 48 h.
Data set [1] in a line: Resistance index, ratio of IC50 for antiproliferative activity against human A549/Taxol cells to IC50 for antiproliferative activity against human A549 cells. Format: functional.
A short description of data set [2]: Toxicity in Balb/C nude mouse assessed as mortality at 0.25 mg/kg, ip measured after 14 days. Format: organism-based. The note with it: in vivo, 336 h, time 14 day.
Data set [3] can be described thus: Toxicity in Balb/C nude mouse assessed as mortality at 2.5 mg/kg, ip measured after 14 days. Type of data set: organism-based. The note with it: in vivo, 336 h, time 14 day.
For the next data set, the system named is PANC-1. Kind of data set: Antiproliferative activity against human PANC-1 assessed as inhibition of cell growth measured after 48 hrs by MTT assay. Type of data set: functional, cell-based. The note with it: PANC-1, 48 h.
Data set [4] is described as follows: Toxicity in Balb/C nude mouse assessed as abnormalities in liver at 0.5 mg/kg, ip measured after 14 days by H and E staining based analysis. Format: organism-based. As to conditions: in vivo, 336 h, time 14 day.
Data set [5] can be described thus: Toxicity in Balb/C nude mouse assessed as abnormalities in heart at 0.5 mg/kg, ip measured after 14 days by H and E staining based analysis. Type of data set: organism-based. The note with it: in vivo, 336 h, time 14 day.
The next data set deals with MDA-MB-468. Kind of data set: Antiproliferative activity against human MDA-MB-468 cells assessed as inhibition of cell growth measured after 48 hrs by MTT assay. Type of data set: functional, cell-based. As to conditions: MDA-MB-468, 48 h.
The next data set relates to HeLa. Kind of data set: Antiproliferative activity against human HeLa assessed as inhibition of cell growth measured after 48 hrs by MTT assay. Type of data set: functional, cell-based.
In another data set the test system is HCT-116. Kind of data set: Antiproliferative activity against human HCT-116 cells assessed as inhibition of cell growth measured after 48 hrs by MTT assay. Type of data set: functional, cell-based. The note with it: HCT-116, 48 h.
The next data set concerns MGC-803. Kind of data set: Antiproliferative activity against human MGC-803 assessed as inhibition of cell growth measured after 48 hrs by MTT assay. Type of data set: functional, cell-based. As to conditions: MGC-803, 48 h.
Data set [6] is described as follows: Toxicity in Balb/C nude mouse assessed as abnormalities in spleen at 0.5 mg/kg, ip measured after 14 days by H and E staining based analysis. Type of data set: organism-based. The note with it: in vivo, 336 h, time 14 day.
Another data set relates to SK-OV-3. Kind of data set: Antiproliferative activity against human SK-OV-3 cells assessed as inhibition of cell growth measured after 48 hrs by MTT assay. Type of data set: functional, cell-based. The note with it: SK-OV-3, 48 h.
Data set [7] is described as follows: Toxicity in Balb/C nude mouse assessed as abnormalities in lung at 0.5 mg/kg, ip measured after 14 days by H and E staining based analysis. Format: organism-based. The note with it: in vivo, 336 h, time 14 day.
The subject of a further data set is U-87 MG. Kind of data set: Antiproliferative activity against human U-87 MG assessed as inhibition of cell growth measured after 48 hrs by MTT assay. Type of data set: functional, cell-based, U-87MG ATCC.
For the next data set, the system named is A549. Kind of data set: Antiproliferative activity against human A549 assessed as inhibition of cell growth measured after 48 hrs by MTT assay. As to conditions: A549, 48 h. Type of data set: functional, cell-based.
The target of data set [8] is Katanin p60 ATPase-containing subunit A1 (Homo sapiens, UniProt O75449). Kind of data set: Binding affinity to N-terminal human Katanin p60 (8 to 229 residues) expressed in Escherichia coli Rosetta (DE3) by SPR analysis. (In general: SPR reads the build-up and loss of mass on a sensor chip optically.)
Data set [9] can be described thus: Toxicity in Balb/C nude mouse assessed as abnormalities in kidney at 0.5 mg/kg, ip measured after 14 days by H and E staining based analysis. Format: organism-based. The note with it: in vivo, 336 h, time 14 day.

Activity calls are given as the source filed them. The rule behind the calls is not given here. A value given as a limit tells only on which side of the number the result lay.

Chain of Katanin p60 ATPase-containing subunit A1 (O75449 whole entry, the tested form may be a part): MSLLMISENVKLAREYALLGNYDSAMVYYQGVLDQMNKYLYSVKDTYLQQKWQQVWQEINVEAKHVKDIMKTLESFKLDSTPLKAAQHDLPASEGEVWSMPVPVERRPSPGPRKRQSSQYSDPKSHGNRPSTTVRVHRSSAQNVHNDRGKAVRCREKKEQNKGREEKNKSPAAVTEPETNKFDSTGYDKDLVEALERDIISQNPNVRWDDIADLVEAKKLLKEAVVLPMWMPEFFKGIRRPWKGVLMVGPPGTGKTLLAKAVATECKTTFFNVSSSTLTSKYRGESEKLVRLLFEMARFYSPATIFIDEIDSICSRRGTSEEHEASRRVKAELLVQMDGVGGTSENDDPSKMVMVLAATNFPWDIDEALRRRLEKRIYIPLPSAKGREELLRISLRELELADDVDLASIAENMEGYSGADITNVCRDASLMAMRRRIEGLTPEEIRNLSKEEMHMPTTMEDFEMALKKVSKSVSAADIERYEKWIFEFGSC

Take `COc1cc2c(c(OC)c1OC)-c1ccc(OC)c(=O)cc1[C@@H](NC(C)=O)CC2` [COLCHICINE]: the IC50 (usually the point on the concentration scale where inhibition reaches its midpoint) in the data set on HT-29 amounted to 59 nM; in the data set on A2780, 13 nM; with MCF7, 25 nM; in the data set on DU-145, 20 nM; with MDA-MB-231, 36 nM; with PANC-1, 25 nM. Also, the IC50 in the data set with MDA-MB-468 amounted to 12 nM; in the data set on HeLa, 10 nM; in the data set with HCT-116 it was 17 nM; in the data set with MGC-803, 2 nM; in the data set with SK-OV-3, 11 nM; with U-87 MG, 36 nM. For the same compound, in the data set with A549, the IC50 came to 29 nM. Moreover, the “Ratio IC50” value in data set [1] was above 10. The Activity result in data set [2] is recorded as “Non-Toxic”; in data set [3], “Toxic”; in data set [4], “Non-Toxic”; in [5], “Non-Toxic”; in [6], “Non-Toxic”; in data set [7], “Non-Toxic”. For the same compound, in data set [9], the Activity result is given as “Non-Toxic”. Also, the outcome in data set [8] was inactive.
